{"source": "the supplement of paper PMC5321775", "key": {"[1]": {"tested_on": "Caenorhabditis briggsae HK104", "experiment": "mean adult lifespan of treated plate (days); higher = longer lifespan", "settings": "exposure: chronic from day 1 of adulthood", "description": "(§1)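 Dose-response lifespan assays in three C. briggsae strains (AF16, HK104, JU1348), run per plate (35-40 animals) on NGM with live OP50-1 and 51 uM FUdR at 20 C. Compound was added to the plate surface and worms were exposed from the first day of adulthood.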"}, "[2]": {"tested_on": "Caenorhabditis briggsae JU1348", "experiment": "mean adult lifespan of treated plate (days); higher = longer lifespan", "settings": "exposure: chronic from day 1 of adulthood", "description": "as §1"}, "[3]": {"tested_on": "Caenorhabditis briggsae AF16", "experiment": "mean adult lifespan of treated plate (days); higher = longer lifespan", "settings": "exposure: chronic from day 1 of adulthood", "description": "as §1"}, "[4]": {"tested_on": "Caenorhabditis briggsae HK104", "experiment": "mean adult lifespan of treated cohort (days); higher = longer lifespan", "settings": "exposure: chronic from day 1 of adulthood, single dose per compound (concentration not stated in sheet)", "description": "(§2)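 Caenorhabditis lifespan assay (CITP). Synchronised hermaphrodites were moved on the first day of adulthood onto 35 mm NGM plates with live E. coli OP50-1 and 51 uM FUdR, with the compound spread on the plate. Worms were kept at 20 C and scored for survival.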"}, "[5]": {"tested_on": "Caenorhabditis briggsae JU1348", "experiment": "mean adult lifespan of treated cohort (days); higher = longer lifespan", "settings": "exposure: chronic from day 1 of adulthood, single dose per compound (concentration not stated in sheet)", "description": "as §2"}, "[6]": {"tested_on": "Caenorhabditis elegans MY16", "experiment": "mean adult lifespan of treated cohort (days); higher = longer lifespan", "settings": "exposure: chronic from day 1 of adulthood, single dose per compound (concentration not stated in sheet)", "description": "as §2"}, "[7]": {"tested_on": "Caenorhabditis elegans JU775", "experiment": "mean adult lifespan of treated cohort (days); higher = longer lifespan", "settings": "exposure: chronic from day 1 of adulthood, single dose per compound (concentration not stated in sheet)", "description": "as §2"}, "[8]": {"tested_on": "Caenorhabditis elegans N2", "experiment": "mean adult lifespan of treated cohort (days); higher = longer lifespan", "settings": "exposure: chronic from day 1 of adulthood, single dose per compound (concentration not stated in sheet)", "description": "as §2"}, "[9]": {"tested_on": "Caenorhabditis briggsae AF16", "experiment": "mean adult lifespan of treated cohort (days); higher = longer lifespan", "settings": "exposure: chronic from day 1 of adulthood, single dose per compound (concentration not stated in sheet)", "description": "as §2"}, "[10]": {"tested_on": "Caenorhabditis briggsae HK104", "experiment": "Kaplan-Meier median lifespan of treated cohort (days); higher = longer lifespan", "settings": "exposure: chronic from day 1 of adulthood, single dose per compound (concentration not stated in sheet)", "description": "as §2"}, "[11]": {"tested_on": "Caenorhabditis briggsae JU1348", "experiment": "Kaplan-Meier median lifespan of treated cohort (days); higher = longer lifespan", "settings": "exposure: chronic from day 1 of adulthood, single dose per compound (concentration not stated in sheet)", "description": "as §2"}, "[12]": {"tested_on": "Caenorhabditis elegans MY16", "experiment": "Kaplan-Meier median lifespan of treated cohort (days); higher = longer lifespan", "settings": "exposure: chronic from day 1 of adulthood, single dose per compound (concentration not stated in sheet)", "description": "as §2"}, "[13]": {"tested_on": "Caenorhabditis elegans JU775", "experiment": "Kaplan-Meier median lifespan of treated cohort (days); higher = longer lifespan", "settings": "exposure: chronic from day 1 of adulthood, single dose per compound (concentration not stated in sheet)", "description": "as §2"}, "[14]": {"tested_on": "Caenorhabditis elegans N2", "experiment": "Kaplan-Meier median lifespan of treated cohort (days); higher = longer lifespan", "settings": "exposure: chronic from day 1 of adulthood, single dose per compound (concentration not stated in sheet)", "description": "as §2"}, "[15]": {"tested_on": "Caenorhabditis briggsae AF16", "experiment": "Kaplan-Meier median lifespan of treated cohort (days); higher = longer lifespan", "settings": "exposure: chronic from day 1 of adulthood, single dose per compound (concentration not stated in sheet)", "description": "as §2"}, "[16]": {"tested_on": "Caenorhabditis briggsae HK104", "experiment": "Kaplan-Meier median lifespan of treated plate (days); higher = longer lifespan", "settings": "exposure: chronic from day 1 of adulthood", "description": "as §1"}, "[17]": {"tested_on": "Caenorhabditis briggsae JU1348", "experiment": "Kaplan-Meier median lifespan of treated plate (days); higher = longer lifespan", "settings": "exposure: chronic from day 1 of adulthood", "description": "as §1"}, "[18]": {"tested_on": "Caenorhabditis briggsae AF16", "experiment": "Kaplan-Meier median lifespan of treated plate (days); higher = longer lifespan", "settings": "exposure: chronic from day 1 of adulthood", "description": "as §1"}}, "note": "± gives the standard deviation of the averaged measurements or the uncertainty stated by the source."}
{"smiles": "CCCOC(=O)c1cc(O)c(O)c(O)c1", "note": "[propyl gallate]", "values": [{"measurement": "mean adult lifespan of treated plate", "setting": "[1]; 20 µM", "value": "33.5 ± 1.6"}, {"measurement": "mean adult lifespan of treated plate", "setting": "[1]; 100 µM", "value": "35 ± 1.6"}, {"measurement": "mean adult lifespan of treated plate", "setting": "[1]; 200 µM", "value": "33.9 ± 1.3"}, {"measurement": "mean adult lifespan of treated plate", "setting": "[1]; 400 µM", "value": "35.1 ± 1.4"}, {"measurement": "mean adult lifespan of treated plate", "setting": "[1]; 4000 µM", "value": "21.9 ± 1.4"}, {"measurement": "mean adult lifespan of treated plate", "setting": "[2]; 20 µM", "value": "23.8 ± 1.1"}, {"measurement": "mean adult lifespan of treated plate", "setting": "[2]; 100 µM", "value": "26 ± 1.4"}, {"measurement": "mean adult lifespan of treated plate", "setting": "[2]; 200 µM", "value": "22.8 ± 1.1"}, {"measurement": "mean adult lifespan of treated plate", "setting": "[2]; 400 µM", "value": "24.7 ± 1.2"}, {"measurement": "mean adult lifespan of treated plate", "setting": "[2]; 4000 µM", "value": "19.5 ± 0.94"}, {"measurement": "mean adult lifespan of treated plate", "setting": "[3]; 20 µM", "value": "26.6 ± 1.5"}, {"measurement": "mean adult lifespan of treated plate", "setting": "[3]; 100 µM", "value": "25 ± 1.5"}, {"measurement": "mean adult lifespan of treated plate", "setting": "[3]; 200 µM", "value": "27.2 ± 1.1"}, {"measurement": "mean adult lifespan of treated plate", "setting": "[3]; 400 µM", "value": "25.2 ± 1.4"}, {"measurement": "mean adult lifespan of treated plate", "setting": "[3]; 4000 µM", "value": "18 ± 1.1"}, {"measurement": "mean adult lifespan of treated cohort", "setting": "[4]", "value": "33.4 ± 1"}, {"measurement": "mean adult lifespan of treated cohort", "setting": "[5]", "value": "24.5 ± 0.75"}, {"measurement": "mean adult lifespan of treated cohort", "setting": "[6]", "value": "18.3 ± 0.57"}, {"measurement": "mean adult lifespan of treated cohort", "setting": "[7]", "value": "21.5 ± 0.74"}, {"measurement": "mean adult lifespan of treated cohort", "setting": "[8]", "value": "19 ± 0.4"}, {"measurement": "mean adult lifespan of treated cohort", "setting": "[9]", "value": "24.8 ± 0.89"}, {"measurement": "Kaplan-Meier median lifespan", "setting": "[10]", "value": "35.5 ± 3"}, {"measurement": "Kaplan-Meier median lifespan", "setting": "[11]", "value": "24.7 ± 4"}, {"measurement": "Kaplan-Meier median lifespan", "setting": "[12]", "value": "18.3 ± 3.9"}, {"measurement": "Kaplan-Meier median lifespan", "setting": "[13]", "value": "22.3 ± 2"}, {"measurement": "Kaplan-Meier median lifespan", "setting": "[14]", "value": "18.3 ± 0.82"}, {"measurement": "Kaplan-Meier median lifespan", "setting": "[15]", "value": "24.7 ± 2"}, {"measurement": "Kaplan-Meier median lifespan", "setting": "[16]; 20 µM", "value": "35.4 ± 5.3"}, {"measurement": "Kaplan-Meier median lifespan", "setting": "[16]; 100 µM", "value": "36.8 ± 3.5"}, {"measurement": "Kaplan-Meier median lifespan", "setting": "[16]; 200 µM", "value": 35}, {"measurement": "Kaplan-Meier median lifespan", "setting": "[16]; 400 µM", "value": "35.5 ± 3.6"}, {"measurement": "Kaplan-Meier median lifespan", "setting": "[16]; 4000 µM", "value": "22.2 ± 6.4"}, {"measurement": "Kaplan-Meier median lifespan", "setting": "[17]; 20 µM", "value": "24.6 ± 4.2"}, {"measurement": "Kaplan-Meier median lifespan", "setting": "[17]; 100 µM", "value": "27.3 ± 4.3"}, {"measurement": "Kaplan-Meier median lifespan", "setting": "[17]; 200 µM", "value": 21}, {"measurement": "Kaplan-Meier median lifespan", "setting": "[17]; 400 µM", "value": "24.1 ± 4.8"}, {"measurement": "Kaplan-Meier median lifespan", "setting": "[17]; 4000 µM", "value": "19.4 ± 2.1"}, {"measurement": "Kaplan-Meier median lifespan", "setting": "[18]; 20 µM", "value": "26.4 ± 2.5"}, {"measurement": "Kaplan-Meier median lifespan", "setting": "[18]; 100 µM", "value": "26.6 ± 2.9"}, {"measurement": "Kaplan-Meier median lifespan", "setting": "[18]; 200 µM", "value": "28.3 ± 0.58"}, {"measurement": "Kaplan-Meier median lifespan", "setting": "[18]; 400 µM", "value": "26.6 ± 2.4"}, {"measurement": "Kaplan-Meier median lifespan", "setting": "[18]; 4000 µM", "value": "17.6 ± 4.5"}]}
{"smiles": "Oc1ccc(/C=C/c2cc(O)cc(O)c2)cc1", "note": "[resveratrol]", "values": [{"measurement": "mean adult lifespan of treated plate", "setting": "[1]; 10 µM", "value": "35.9 ± 1.3"}, {"measurement": "mean adult lifespan of treated plate", "setting": "[1]; 50 µM", "value": "33 ± 1.3"}, {"measurement": "mean adult lifespan of treated plate", "setting": "[1]; 200 µM", "value": "35.5 ± 1.5"}, {"measurement": "mean adult lifespan of treated plate", "setting": "[1]; 1000 µM", "value": "34.7 ± 1.3"}, {"measurement": "mean adult lifespan of treated plate", "setting": "[2]; 10 µM", "value": "25.9 ± 1.5"}, {"measurement": "mean adult lifespan of treated plate", "setting": "[2]; 50 µM", "value": "25.7 ± 1.1"}, {"measurement": "mean adult lifespan of treated plate", "setting": "[2]; 200 µM", "value": "22.9 ± 1.1"}, {"measurement": "mean adult lifespan of treated plate", "setting": "[2]; 1000 µM", "value": "23.6 ± 1"}, {"measurement": "mean adult lifespan of treated plate", "setting": "[3]; 10 µM", "value": "26.1 ± 1.4"}, {"measurement": "mean adult lifespan of treated plate", "setting": "[3]; 50 µM", "value": "26.9 ± 1.2"}, {"measurement": "mean adult lifespan of treated plate", "setting": "[3]; 200 µM", "value": "26.9 ± 1.6"}, {"measurement": "mean adult lifespan of treated plate", "setting": "[3]; 1000 µM", "value": "27.6 ± 1.3"}, {"measurement": "mean adult lifespan of treated cohort", "setting": "[4]", "value": "33.5 ± 1"}, {"measurement": "mean adult lifespan of treated cohort", "setting": "[5]", "value": "25.5 ± 0.79"}, {"measurement": "mean adult lifespan of treated cohort", "setting": "[6]", "value": "18.3 ± 0.59"}, {"measurement": "mean adult lifespan of treated cohort", "setting": "[7]", "value": "22.9 ± 0.69"}, {"measurement": "mean adult lifespan of treated cohort", "setting": "[8]", "value": "19.2 ± 0.46"}, {"measurement": "mean adult lifespan of treated cohort", "setting": "[9]", "value": "24.6 ± 0.91"}, {"measurement": "Kaplan-Meier median lifespan", "setting": "[10]", "value": "35.8 ± 3.4"}, {"measurement": "Kaplan-Meier median lifespan", "setting": "[11]", "value": "25.5 ± 1.6"}, {"measurement": "Kaplan-Meier median lifespan", "setting": "[12]", "value": "18.3 ± 1.5"}, {"measurement": "Kaplan-Meier median lifespan", "setting": "[13]", "value": "24.2 ± 1.7"}, {"measurement": "Kaplan-Meier median lifespan", "setting": "[14]", "value": "19.2 ± 1.2"}, {"measurement": "Kaplan-Meier median lifespan", "setting": "[15]", "value": "24.2 ± 1.5"}, {"measurement": "Kaplan-Meier median lifespan", "setting": "[16]; 10 µM", "value": "36.8 ± 3.5"}, {"measurement": "Kaplan-Meier median lifespan", "setting": "[16]; 50 µM", "value": "36.2 ± 3.3"}, {"measurement": "Kaplan-Meier median lifespan", "setting": "[16]; 200 µM", "value": "36.9 ± 3"}, {"measurement": "Kaplan-Meier median lifespan", "setting": "[16]; 1000 µM", "value": "35.6 ± 3.6"}, {"measurement": "Kaplan-Meier median lifespan", "setting": "[17]; 10 µM", "value": "25.7 ± 4.7"}, {"measurement": "Kaplan-Meier median lifespan", "setting": "[17]; 50 µM", "value": "25.7 ± 4.7"}, {"measurement": "Kaplan-Meier median lifespan", "setting": "[17]; 200 µM", "value": "23.2 ± 3.4"}, {"measurement": "Kaplan-Meier median lifespan", "setting": "[17]; 1000 µM", "value": "22.6 ± 2.6"}, {"measurement": "Kaplan-Meier median lifespan", "setting": "[18]; 10 µM", "value": "26.1 ± 1.4"}, {"measurement": "Kaplan-Meier median lifespan", "setting": "[18]; 50 µM", "value": "27.8 ± 2.7"}, {"measurement": "Kaplan-Meier median lifespan", "setting": "[18]; 200 µM", "value": "26.3 ± 1.8"}, {"measurement": "Kaplan-Meier median lifespan", "setting": "[18]; 1000 µM", "value": "28.1 ± 2.2"}]}
